# Assay results taken from US5610143A, “Antibiotics GE 37468 A, B and C” (Gruppo Lepetit S.p.A., priority 1995, dated 1997).
# Assays:
# [1] = tested on: Staphylococcus epidermidis ATCC 12228; conditions: Iso-Sensitest broth, inoculum 10^4 CFU/ml, 20-24 h, 37° C.
# [2] = tested on: Neisseria gonorrhoeae L997; conditions: GC Base broth +1% IsoVitalex, inoculum 10^4 CFU/ml, 48 h, 37° C., 5% CO2 in air
# [3] = tested on: Proteus vulgaris ATCC 881; conditions: Iso-Sensitest broth, inoculum 10^4 CFU/ml, 20-24 h, 37° C.
# [4] = tested on: Staphylococcus aureus Smith; assay: MIC by broth microdilution; type: cell-based; conditions: Iso-Sensitest broth, inoculum 10^4 CFU/ml, 20-24 h, 37° C.
# [5] = tested on: Haemophilus influenzae ATCC 19418; conditions: Brain Heart Infusion broth +1% Supplement C, inoculum 10^4 CFU/ml, 48 h, 37° C., 5% CO2 in air
# [6] = tested on: Pseudomonas aeruginosa ATCC 10145; conditions: Iso-Sensitest broth, inoculum 10^4 CFU/ml, 20-24 h, 37° C.
# [7] = tested on: Bacteroides fragiles ATCC 25285; conditions: Wilkins-Chalgren broth, inoculum 10^5, 48 h, 37° C., N2:CO2:H2 (80:10:10)
# [8] = tested on: Staphylococcus haemolyticus L602; conditions: Iso-Sensitest broth, inoculum 10^4 CFU/ml, 20-24 h, 37° C.
# Candida albicans L145 = conditions: phosphate buffered Yeast Nitrogen Base broth with glucose and L-asparagine, inoculum 10^4 CFU/ml, 20-24 h, 37° C.
# Escherichia coli L47 = conditions: Iso-Sensitest broth, inoculum 10^4 CFU/ml, 20-24 h, 37° C.
# [9] = tested on: Staphylococcus aureus L165; conditions: Iso-Sensitest broth, inoculum 10^4 CFU/ml, 20-24 h, 37° C.
# [10] = tested on: Enterococcus faecalis ATCC 7080; assay: MIC by broth microdilution; type: cell-based; conditions: Iso-Sensitest broth, inoculum 10^4 CFU/ml, 20-24 h, 37° C.
# [11] = tested on: Clostridium perfringens L290; conditions: Wilkins-Chalgren broth, inoculum 10^5, 48 h, 37° C., N2:CO2:H2 (80:10:10)
# [12] = tested on: Propionibacterium acnes ATCC 6919; assay: MIC by broth microdilution; type: cell-based; conditions: Wilkins-Chalgren broth, inoculum 10^5, 48 h, 37° C., N2:CO2:H2 (80:10:10)
smiles,measurement,setting,value
Cc1oc2nc1C(=O)NC(CC(N)=O)c1nc(cs1)C(=O)NC(Cc1ccccc1)C1=NC(CS1)C(=O)NC(Cc1ccc(O)cc1)C(=O)N1C(O)CC(C)C1c1nc(cs1)-c1nc(cs1)-c1nc(-c3nc(C(N)=O)cs3)ccc1-2 (stereo not shown) [GE37468B],M.I.C.,[1],0.06 microgram/ml
same,M.I.C.,[2],> 128 microgram/ml
same,M.I.C.,[3],> 128 microgram/ml
same,M.I.C.,[4],0.03 microgram/ml
same,M.I.C.,[5],> 128 microgram/ml
same,M.I.C.,[6],> 128 microgram/ml
same,M.I.C.,[7],> 128 microgram/ml
same,M.I.C.,[8],0.13 microgram/ml
same,M.I.C.,Candida albicans L145,> 128 microgram/ml
same,M.I.C.,Escherichia coli L47,> 128 microgram/ml
same,M.I.C.,[9],0.03 microgram/ml
same,M.I.C.,[10],0.03 microgram/ml
same,M.I.C.,[11],0.016 microgram/ml
same,M.I.C.,[12],0.016 microgram/ml
C=C(NC(=O)c1csc(-c2ccc3c(n2)-c2csc(n2)-c2csc(n2)C2C(C)CC(O)N2C(=O)C(Cc2ccc(O)cc2)NC(=O)C2CSC(=N2)C(Cc2ccccc2)NC(=O)c2csc(n2)C(CC(N)=O)NC(=O)c2nc-3oc2C)n1)C(N)=O (stereo not shown) [GE37468C],M.I.C.,[1],0.25 microgram/ml
same,M.I.C.,[2],> 128 microgram/ml
same,M.I.C.,[3],> 128 microgram/ml
same,M.I.C.,[4],0.03 microgram/ml
same,M.I.C.,[5],> 128 microgram/ml
same,M.I.C.,[6],> 128 microgram/ml
same,M.I.C.,[7],> 128 microgram/ml
same,M.I.C.,[8],0.13 microgram/ml
same,M.I.C.,Candida albicans L145,> 128 microgram/ml
same,M.I.C.,Escherichia coli L47,> 128 microgram/ml
same,M.I.C.,[9],0.03 microgram/ml
same,M.I.C.,[10],0.03 microgram/ml
same,M.I.C.,[11],0.016 microgram/ml
same,M.I.C.,[12],0.016 microgram/ml
